Key:
[1] = biological target: T1, Type-1 angiotensin II receptor (Oryctolagus cuniculus, UniProt P34976); experiment: In vitro binding affinity against Angiotensin II receptor in rabbit aorta rings; format: tissue-based; details: read-out: pA2 (converted)
T1 sequence (P34976 whole entry): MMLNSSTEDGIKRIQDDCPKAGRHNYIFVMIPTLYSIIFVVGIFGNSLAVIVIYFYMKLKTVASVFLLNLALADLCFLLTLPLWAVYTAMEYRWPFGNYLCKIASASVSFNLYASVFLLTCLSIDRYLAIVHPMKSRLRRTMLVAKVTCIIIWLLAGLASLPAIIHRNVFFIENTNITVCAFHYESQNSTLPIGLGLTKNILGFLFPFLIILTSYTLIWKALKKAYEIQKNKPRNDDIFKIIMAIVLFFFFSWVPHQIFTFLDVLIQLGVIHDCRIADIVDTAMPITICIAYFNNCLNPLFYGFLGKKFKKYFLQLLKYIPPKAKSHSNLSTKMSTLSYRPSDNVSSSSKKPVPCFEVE

Rattus norvegicus [2] = experiment: Tested for percent of maximal blood pressure drop in high renin rat after peroral administration of 30 mg/kg of dose; format: functional; details: route oral
Rattus norvegicus [3] = experiment: Tested for total duration time(BP) after peroral administration of 30 mg/kg of dose in spontaneously hypertensive rat; format: functional; details: route oral
Rattus norvegicus [4] = experiment: Tested for total onset time(BP) after peroral administration of 30 mg/kg of dose in spontaneously hypertensive rat; format: functional; details: route oral
Rattus norvegicus [5] = experiment: Tested for percent of maximal blood pressure drop after peroral administration of 30 mg/kg in spontaneously hypertensive rat; format: functional; details: route oral
Rattus norvegicus [6] = experiment: Tested for total duration time(BP) after peroral administration of 30 mg/kg of dose in high renin rat; format: functional; details: route oral
Rattus norvegicus [7] = experiment: Tested for total onset time(BP) after peroral administration of 30 mg/kg of dose in high renin rat; format: functional; details: route oral
Rattus norvegicus [8] = experiment: Dose (iv) required for graded reduction in mean arterial blood pressure in spontaneously hypertensive rat (also, 10 mg/kg); format: functional

| Kb [1] [nM] | Compound | Max drop (Rattus norvegicus [2]) [%] | Duration (Rattus norvegicus [3]) [h] | Onset (Rattus norvegicus [4]) [h] | Max drop (Rattus norvegicus [5]) [%] | Duration (Rattus norvegicus [6]) [h] | Onset (Rattus norvegicus [7]) [h] | Max drop (Rattus norvegicus [2]; 30 mg/kg) [%] | Duration (Rattus norvegicus [6]; 30 mg/kg) [h] | Onset (Rattus norvegicus [7]; 30 mg/kg) [h] | Dose (Rattus norvegicus [8]) [mg/kg] | Duration (Rattus norvegicus [3]; 30 mg/kg) [h] | Onset (Rattus norvegicus [4]; 30 mg/kg) [h] | Max drop (Rattus norvegicus [5]; 30 mg/kg) [%] |
| --- | --- | --- | --- | --- | --- | --- | --- | --- | --- | --- | --- | --- | --- | --- |
| 20 | CCOC(=O)/C=C1\C2C3C=CC(CCC3)C2C(=O)N1Cc1ccc(-c2ccccc2-c2nn[nH]n2)cc1 (configuration not stated) | 96 | 24 | 0.25 | 96 |  |  |  |  |  |  |  |  |  |
| 1 | CCOC(=O)/C=C1\C2C3CCC(C3)C2C(=O)N1Cc1ccc(-c2ccccc2-c2nn[nH]n2)cc1 (configuration not stated) | 26 |  |  |  | 17 | 1 |  |  |  |  |  |  |  |
| 3.16 | CCOC(=O)/C=C1\CC2(CCCC2)C(=O)N1Cc1ccc(-c2ccccc2-c2nn[nH]n2)cc1 | 20 |  |  |  | 3 | 2 |  |  |  |  |  |  |  |
| 15.8 | CCOC(=O)/C=C1\CC(C)(C(C)C)CC(=O)N1Cc1ccc(-c2ccccc2-c2nn[nH]n2)cc1 (configuration not stated) | 70 | 5 | 1.25 | 70 |  |  |  |  |  |  |  |  |  |
| 31.6 | CCCCC1(C)CC(=O)N(Cc2ccc(-c3ccccc3-c3nn[nH]n3)cc2)/C(=C/C(=O)OCC)C1 (configuration not stated) | 98 | 24 | 0.5 | 98 |  |  |  |  |  |  |  |  |  |
| 3.98 | CCOC(=O)/C=C1\CC2(CCCCCC2)C(=O)N1Cc1ccc(-c2ccccc2-c2nn[nH]n2)cc1 | 31 | 16 | 1.5 | 80 | 23 | 0.75 |  |  |  |  |  |  |  |
| 12.6 | CCOC(=O)/C=C1\CC2(CCCCC2)C(=O)N1Cc1ccc(-c2ccccc2-c2nn[nH]n2)cc1 | 26 |  |  |  | 17 | 1 |  |  |  |  |  |  |  |
| 12.6 | CCCC1(CC)CC(=O)N(Cc2ccc(-c3ccccc3-c3nn[nH]n3)cc2)/C(=C/C(=O)OCC)C1 (configuration not stated) | 18 | 6 | 3 | 18 |  |  |  |  |  |  |  |  |  |
| 12.6 | CCOC(=O)/C=C1\CC2(CCCC2)CC(=O)N1Cc1ccc(-c2ccccc2-c2nn[nH]n2)cc1 | 46 |  |  |  | 21 | 2.5 |  |  |  |  |  |  |  |
| 39.8 | CCOC(=O)/C=C1\CC(C)(C)CC(=O)N1Cc1ccc(-c2ccccc2-c2nn[nH]n2)cc1 | 17 |  |  |  | 5 | 2 |  |  |  |  |  |  |  |
| 5.01 | CCOC(=O)/C=C1\CC2(CCCCC2)CC(=O)N1Cc1ccc(-c2ccccc2-c2nn[nH]n2)cc1 | 100 | 8 | 0.25 | 100 |  |  |  |  |  |  |  |  |  |
| 100 | CCCCC1(CC)CC(=O)N(Cc2ccc(-c3ccccc3-c3nn[nH]n3)cc2)/C(=C/C(=O)OCC)C1 (configuration not stated) | 55 | 8 | 0.25 | 55 |  |  |  |  |  |  |  |  |  |
| 6.31 | CCOC(=O)/C=C1\C2C3C=CC(CC3)C2C(=O)N1Cc1ccc(-c2ccccc2-c2nn[nH]n2)cc1 (stereo in doubt; 5) |  |  |  |  |  |  | 29 | 17 | 1.75 |  |  |  |  |
| 10 | CCOC(=O)/C=C1\C2C3C=CC(CC3)C2C(=O)N1Cc1ccc(-c2ccccc2-c2nn[nH]n2)cc1 (stereo in doubt; 7) |  | 13 | 1 | 86 |  |  | 43 | 10 | 0.25 |  |  |  |  |
| 1 | CCOC(=O)/C=C1\CC(C)(CC)CC(=O)N1Cc1ccc(-c2ccccc2-c2nn[nH]n2)cc1 (stereo in doubt; 9) |  |  |  |  | <24 | 0.25 | 100 |  |  | 3 | 24 | 0.25 | 100 |
| 3.98 | CCOC(=O)/C=C1\CC(CC)(CC)CC(=O)N1Cc1ccc(-c2ccccc2-c2nn[nH]n2)cc1 (stereo in doubt; 11) |  |  |  |  |  |  | 35 |  |  |  | 15 | 0.75 | 35 |
| 2.51 | CCOC(=O)/C=C1\CC(C)(CC)CC(=O)N1Cc1ccc(-c2ccccc2-c2nn[nH]n2)cc1 (stereo in doubt; 13) |  |  |  |  |  |  | 58 |  |  |  | 16 | 0.5 | 58 |
| 7.94 | CCOC(=O)/C=C1\CC(CC)(CC)CC(=O)N1Cc1ccc(-c2ccccc2-c2nn[nH]n2)cc1 (stereo in doubt; 16) |  |  |  |  |  |  | 100 |  |  |  | 24 | 0.25 | 100 |
|  | CCCCc1nc(Cl)c(CO)n1Cc1ccc(-c2ccccc2-c2nnn[nH]2)cc1 [LOSARTAN] | 100 | 24 | 2 | 100 | 24 | 2 |  |  |  |  |  |  |  |

From ChEMBL document CHEMBL1127878, “Substituted lactam biphenyltetrazoles as angiotensin II mediated antihypertensives” (Bioorg Med Chem Lett, 1994)
